The test system of the assay is P388 leukemia ip, CD2F1 mice, survival T/C. Description: NCI In Vivo Anticancer Drug Screen. Data for tumor model P388 Leukemia (intraperitoneal) in CD2F1 (CDF1) mice. Particulars: endpoint: median survival time, higher = longer survival. In short, it runs like this: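 Mice carrying the transplanted tumor received test compound or vehicle. Survival was recorded in each group, and the value is the treated-group measurement divided by that of the vehicle-treated control group.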

The mark [1] stands for this setting: dose: 60.0 mg/kg/injection, schedule: Q01DX005 (ip), vehicle: saline with Tween-80.
The mark [2] stands for this setting: dose: 120.0 mg/kg/injection, schedule: Q01DX005 (ip), vehicle: saline with Tween-80.
The mark [3] stands for this setting: dose: 240.0 mg/kg/injection, schedule: Q01DX005 (ip), vehicle: saline with Tween-80.
Setting [4] is: dose: 50.0 mg/kg/injection, schedule: Q01DX005 (ip), vehicle: saline with Tween-80.
The mark [5] stands for this setting: dose: 100.0 mg/kg/injection, schedule: Q01DX005 (ip), vehicle: saline with Tween-80.
[6] abbreviates: dose: 200.0 mg/kg/injection, schedule: Q01DX005 (ip), vehicle: saline with Tween-80.
Where [7] appears, read: dose: 12.5 mg/kg/injection, schedule: Q01DX005 (ip), vehicle: Klucel (hydroxypropylcellulose) (HPC).
Where [8] appears, read: dose: 25.0 mg/kg/injection, schedule: Q01DX005 (ip), vehicle: Klucel (hydroxypropylcellulose) (HPC).
Setting [9] is: dose: 50.0 mg/kg/injection, schedule: Q01DX005 (ip), vehicle: Klucel (hydroxypropylcellulose) (HPC).
Where [10] appears, read: dose: 100.0 mg/kg/injection, schedule: Q01DX005 (ip), vehicle: Klucel (hydroxypropylcellulose) (HPC).
[11] abbreviates: dose: 200.0 mg/kg/injection, schedule: Q01DX005 (ip), vehicle: Klucel (hydroxypropylcellulose) (HPC).

Where “and” joins values, the source holds several entries; their conditions need not be identical. Equal values may be shown once. Toxic doses and inconclusive results are not listed.

Take `CNC(=O)Nc1nc2ccccc2[nH]1`: the T/C runs as follows: (dose: 20.0 mg/kg/injection, schedule: Q04DX003 (ip), vehicle: other) 100 % of control; (dose: 20.0 mg/kg/injection, schedule: Q04DX003 (oral), vehicle: other) 100 % of control; (dose: 40.0 mg/kg/injection, schedule: Q04DX003 (ip), vehicle: other) 95 % of control; (dose: 40.0 mg/kg/injection, schedule: Q04DX003 (oral), vehicle: other) 100 % of control; (dose: 50.0 mg/kg/injection, schedule: Q04DX003 (ip), vehicle: Klucel (hydroxypropylcellulose) (HPC)) 100 % of control (2×) and 109 % of control; (dose: 80.0 mg/kg/injection, schedule: Q04DX003 (ip), vehicle: other) 102 % of control. Besides, the T/C (dose: 80.0 mg/kg/injection, schedule: Q04DX003 (oral), vehicle: other) is 100 % of control; the T/C (dose: 100.0 mg/kg/injection, schedule: Q04DX003 (ip), vehicle: Klucel (hydroxypropylcellulose) (HPC)) was 105 % of control and 111 % of control and 116 % of control; the T/C (dose: 160.0 mg/kg/injection, schedule: Q04DX003 (ip), vehicle: other) was 111 % of control; the T/C (dose: 160.0 mg/kg/injection, schedule: Q04DX003 (oral), vehicle: other) is 104 % of control; the T/C (dose: 200.0 mg/kg/injection, schedule: Q04DX003 (ip), vehicle: Klucel (hydroxypropylcellulose) (HPC)) is 112 % of control and 118 % of control; the T/C (dose: 320.0 mg/kg/injection, schedule: Q04DX003 (ip), vehicle: other) is 119 % of control. Besides, the T/C by setting is: (dose: 320.0 mg/kg/injection, schedule: Q04DX003 (oral), vehicle: other) 102 % of control; (dose: 400.0 mg/kg/injection, schedule: Q04DX003 (ip), vehicle: Klucel (hydroxypropylcellulose) (HPC)) 109 % of control and 121 % of control; (dose: 640.0 mg/kg/injection, schedule: Q04DX003 (ip), vehicle: other) 154 % of control; (dose: 640.0 mg/kg/injection, schedule: Q04DX003 (oral), vehicle: other) 109 % of control.
For the compound `C=C1C[C@H](O)[C@H]2C(C[Se]c3ccccc3)C(=O)O[C@@H]2[C@H]2[C@H](C)C(=O)C[C@@H]12` (stereo not given in full), the T/C under setting [1] is 97 % of control, the T/C under setting [2] is 95 % of control and the T/C under setting [3] was 92 % of control.
For `S=C1SCN(CCc2c[nH]c3ccccc23)CN1CCc1c[nH]c2ccccc12`, the T/C runs as follows: under setting [4], 92 % of control; under setting [5], 90 % of control; under setting [6], 92 % of control.
`CC(=O)Nc1nc(Cl)c2ncn(C3CC(OC(=O)c4ccc(C)cc4)C(COC(=O)c4ccc(C)cc4)O3)c2n1` (stereo not given): the T/C under setting [7] is 97 % of control; the T/C under setting [8] is 90 % of control; the T/C under setting [9] was 97 % of control and 100 % of control; the T/C under setting [10] is 95 % of control and 98 % of control; the T/C under setting [11] is 97 % of control and 103 % of control.
As to `Cc1csc2nc(-c3ccccc3)c(/C=N/NC(=O)CN(C)C)n12`, the T/C is 110 % of control under setting [1], 103 % of control under setting [2] and 99 % of control under setting [3].
Take `c1ccc2nc(N3CCCC3)c(N3CCCCC3)nc2c1`: the T/C under setting [9] was 102 % of control, the T/C under setting [10] is 94 % of control and the T/C under setting [11] was 100 % of control.
In the case of `CCn1c(=O)c(C#N)c2n(CC)c3cc(C)c(C)cc3n2c1=O`, the T/C under setting [1] is 90 % of control, the T/C under setting [2] is 86 % of control and the T/C under setting [3] was 86 % of control.
`COc1ccc2c(CC(=O)O)cc(=O)oc2c1`: the T/C reads like this: under setting [1], 102 % of control; under setting [2], 120 % of control; under setting [3], 99 % of control.
On to `Cc1ccccc1C[P+](c1ccccc1)(c1ccccc1)c1ccccc1`, for which the T/C by setting is: (dose: 0.62 mg/kg/injection, schedule: Q01DX009 (ip), vehicle: saline with Tween-80) 95 % of control; (dose: 1.25 mg/kg/injection, schedule: Q01DX009 (ip), vehicle: saline with Tween-80) 100 % of control; (dose: 2.5 mg/kg/injection, schedule: Q01DX009 (ip), vehicle: saline with Tween-80) 104 % of control; (dose: 5.0 mg/kg/injection, schedule: Q01DX009 (ip), vehicle: saline with Tween-80) 117 % of control; (dose: 5.0 mg/kg/injection, schedule: Q04DX003 (ip), vehicle: saline with Tween-80) 100 % of control; (dose: 10.0 mg/kg/injection, schedule: Q01DX009 (ip), vehicle: saline with Tween-80) 95 % of control. Where the note is “dose: 10.0 mg/kg/injection, schedule: Q04DX003 (ip), vehicle: saline with Tween-80”, the T/C was 87 % of control.
With `COc1cccc2c1C(=O)c1c(O)c3c(c(O)c1C2=O)CC(O)(C(O)CO)CC3OC1CC(N2CCCCC2)C(O)C(C)O1` (stereo not given), the T/C by setting is: (dose: 0.39 mg/kg/injection, schedule: Q01DX009 (ip), vehicle: water) 115 % of control; (dose: 1.56 mg/kg/injection, schedule: Q01DX009 (ip), vehicle: water) 153 % of control and 157 % of control; (dose: 2.4 mg/kg/injection, schedule: Q04DX003 (ip), vehicle: water) 100 % of control; (dose: 4.7 mg/kg/injection, schedule: Q04DX003 (ip), vehicle: water) 106 % of control; (dose: 9.4 mg/kg/injection, schedule: Q04DX003 (ip), vehicle: water) 114 % of control and 124 % of control; (dose: 18.8 mg/kg/injection, schedule: Q04DX003 (ip), vehicle: water) 124 % of control. Where the note is “dose: 75.0 mg/kg/injection, schedule: Q04DX003 (ip), vehicle: water”, the T/C was 101 % of control.
Take `COc1ccc(/C=N/OC(=S)NC2CCCCC2)cc1OC`: the T/C under setting [4] is 102 % of control, the T/C under setting [5] is 94 % of control and the T/C under setting [6] is 93 % of control.
`CNCCc1ccc2cc(OC)c(OC)cc2c1`: the T/C runs as follows: (dose: 25.0 mg/kg/injection, schedule: Q01DX009 (ip), vehicle: saline with Tween-80) 90 % of control; (dose: 50.0 mg/kg/injection, schedule: Q01DX009 (ip), vehicle: saline with Tween-80) 100 % of control; (dose: 100.0 mg/kg/injection, schedule: Q01DX009 (ip), vehicle: saline with Tween-80) 100 % of control.
As for `CCN1C(=O)c2ccccc2C1=O`, the T/C by setting is: (dose: 50.0 mg/kg/injection, schedule: Q01DX009 (ip), vehicle: saline) 101 % of control; (dose: 100.0 mg/kg/injection, schedule: Q01DX009 (ip), vehicle: saline) 90 % of control; (dose: 200.0 mg/kg/injection, schedule: Q01DX009 (ip), vehicle: saline) 110 % of control.
As for `CCOC1=C(C)Sc2ccccc2N=C1c1ccccc1`, the T/C is 99 % of control (dose: 100.0 mg/kg/injection, schedule: Q04DX002 (ip), vehicle: Klucel + Tween-80); 93 % of control (dose: 200.0 mg/kg/injection, schedule: Q04DX002 (ip), vehicle: Klucel + Tween-80); 98 % of control (dose: 400.0 mg/kg/injection, schedule: Q04DX002 (ip), vehicle: Klucel + Tween-80).
As to `Nc1nc(N)c2nc(Sc3ccc(F)cc3)c(N)nc2n1`, the T/C under setting [8] was 97 % of control, the T/C under setting [9] was 94 % of control and the T/C under setting [10] was 88 % of control.
For the compound `CN(C)c1ncnc2c1ncn2C1CCCCO1` (stereo not given), the T/C was 103 % of control under setting [7], 105 % of control under setting [8] and 100 % of control under setting [9].
As for `OCC1OC(O)C2OCCOCCOC3C(O)C(CO)OC(O)C3OCCOCCOC2C1O` (stereo not given), the T/C runs as follows: (dose: 60.0 mg/kg/injection, schedule: Q01DX005 (ip), vehicle: saline) 101 % of control; (dose: 120.0 mg/kg/injection, schedule: Q01DX005 (ip), vehicle: saline) 95 % of control; (dose: 240.0 mg/kg/injection, schedule: Q01DX005 (ip), vehicle: saline) 97 % of control.
With `CCN(CC)CCOCCc1ccccc1`, the T/C (dose: 12.5 mg/kg/injection, schedule: Q01DX005 (ip), vehicle: saline with Tween-80) is 98 % of control; the T/C (dose: 25.0 mg/kg/injection, schedule: Q01DX005 (ip), vehicle: saline with Tween-80) is 98 % of control; the T/C under setting [4] was 98 % of control and 100 % of control.
In the case of `Cc1ccc(N2C(=O)CC3(CCCC3)C2=O)cc1[N+](=O)[O-]`, the T/C (dose: 100.0 mg/kg/injection, schedule: Q04DX002 (ip), vehicle: Klucel (hydroxypropylcellulose) (HPC)) is 106 % of control; the T/C (dose: 200.0 mg/kg/injection, schedule: Q04DX002 (ip), vehicle: Klucel (hydroxypropylcellulose) (HPC)) was 105 % of control; the T/C (dose: 400.0 mg/kg/injection, schedule: Q04DX002 (ip), vehicle: Klucel (hydroxypropylcellulose) (HPC)) is 97 % of control.

(Values after PubChem BioAssay AID330 (DTP/NCI, 2004).)
